From patent US10723723B2, “Substituted bicycle heterocyclic derivatives useful as ROMK channel inhibitors” (BRISTOL-MYERS SQUIBB COMPANY, priority 2016, dated 2020)

Target: hROMK (human Kir1.1) (Homo sapiens (Human), UniProt P48048)
Test: Thallium Flux Assay (FluxOR, CHO T-Rex hROMK stable cell line)
Type: cell-based
Conditions: CHO T-Rex hROMK cells, 10-point concentration response curve; read-out: Human ROMK TH Flux IC50
Description: Solutions and reagents: Thallium flux assay was performed using FluxOR kit (F10017, Life Technologies). Loading buffer, assay buffer and stimulus buffer were prepared using kit components.
To prepare 10 ml of loading buffer: 10 μl of FluxOR dye (reconstituted in DMSO) was first added to 100 μl of powerload concentrate and this mix along with 100 μl of Probenicid (100×) was then added to 9.79 ml of HBSS. […] Stimulus buffer was composed of 15 mM Tl2SO4, 0.75 mM K2SO4 in FluxOR chloride free buffer (diluted to 1× using deionized water). The final concentration of Tl2SO4 and K2SO4 in the assay plate was 3 mM and 0.15 mM, respectively.
Plating and induction of cells: The CHO T-Rex hROMK (human Kir1.1) stable cell line was maintained in Ham's F12 media supplemented with 10% FBS, 1% Penicillin-Streptomycin, 500 μg/ml Zeocin and 10 μg/ml Blasticidin at 37° C. in a 5% CO2 incubator. […] The cell suspension was centrifuged at 1200 rpm for 5 min. After discarding the supernatant, the cells were resuspended in fresh growth media and cell concentration was determined using a hemocytometer. […] The assay plate was kept at 37° C. in a 5% CO2 incubator.
Assay protocol: On the day of experiment, media was removed and loading buffer was added (30 μl/well) to the assay plate. The cells were incubated in the loading buffer for 30 minutes at 37° C. The loading buffer was then replaced by assay buffer (30 μl/well) followed by addition of test compounds or controls. […] Each well was read for 90 sec at 2 sec interval and the stimulus buffer was added after 20 seconds of baseline recording. The final DMSO concentration was either 0.5 or 1% in the assay plate. Positive and negative controls were defined by addition of DMSO or 3 μM of a standard ROMK inhibitor, respectively, to the wells instead of a test compound.
A 10-point concentration response curve was used to estimate the IC50 value of test compounds.

Sequence of hROMK (human Kir1.1) (P48048 whole entry): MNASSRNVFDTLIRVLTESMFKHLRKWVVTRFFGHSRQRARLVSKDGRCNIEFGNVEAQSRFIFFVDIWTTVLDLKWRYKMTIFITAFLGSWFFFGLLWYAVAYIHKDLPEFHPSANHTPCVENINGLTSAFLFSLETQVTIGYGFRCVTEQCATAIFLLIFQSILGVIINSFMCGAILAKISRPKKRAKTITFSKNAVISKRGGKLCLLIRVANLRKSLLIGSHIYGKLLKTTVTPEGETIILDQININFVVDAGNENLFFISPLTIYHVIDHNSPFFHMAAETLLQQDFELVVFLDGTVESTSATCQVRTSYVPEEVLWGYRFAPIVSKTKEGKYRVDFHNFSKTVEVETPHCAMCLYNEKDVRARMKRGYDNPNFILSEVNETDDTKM

Structure (SMILES) | IC50 [nM]
Cc1ncn(-c2ncc(CNC[C@H](O)c3ccc4c(c3C)COC4=O)cn2)c1C(F)F [Example 90, (R)-5-(2-(((2-(5-(difluoromethyl)-4-methyl-1H-imidazol-1-yl)pyrimidin-5-yl)methyl)amino)-1-hydroxyethyl)-4-methylisobenzofuran-1(3H)-one] | 230
Cc1cc(-n2cc(CNC[C@H](O)c3ccc4c(c3C)COC4=O)ccc2=O)ncc1C#N [Example 99, (R)-5-(((2-hydroxy-2-(4-methyl-1-oxo-1,3-dihydroisobenzofuran-5-yl)ethyl)amino)methyl)-4′-methyl-2-oxo-2H-[1,2′-bipyridine]-5′-carbonitrile] | 140
CCc1nn(-c2ccc(CNC[C@H](O)c3ccc4c(c3C)COC4=O)cn2)cc1C#N [Example 103, (R)-3-ethyl-1-(5-(((2-hydroxy-2-(4-methyl-1-oxo-1,3-dihydroisobenzofuran-5-yl)ethyl)amino)methyl)pyridin-2-yl)-1H-pyrazole-4-carbonitrile] | 55.2
Cc1c([C@@H](O)CNCc2cnn(-c3cc(N4CCCC4)c(C#N)cn3)c2)ccc2c1COC2=O [Example 119, (R)-6-(4-(((2-hydroxy-2-(4-methyl-1-oxo-1,3-dihydroisobenzofuran-5-yl)ethyl)amino)methyl)-1H-pyrazol-1-yl)-4-(pyrrolidin-1-yl)nicotinonitrile] | 91
Cc1c([C@@H](O)CNCc2cncc(-c3ccc4oc(=O)n(C)c4c3)c2)ccc2c1COC2=O [Example 120, (R)-5-(5-(((2-hydroxy-2-(4-methyl-1-oxo-1,3-dihydroisobenzofuran-5-yl)ethyl)amino)methyl)pyridin-3-yl)-3-methylbenzo[d]oxazol-2(3H)-one] | 120
Cc1c([C@@H](O)CNCc2cnn(-c3ccc4oc(=O)[nH]c4c3)c2)ccc2c1COC2=O [Example 121, (R)-5-(4-(((2-hydroxy-2-(4-methyl-1-oxo-1,3-dihydroisobenzofuran-5-yl)ethyl)amino)methyl)-1H-pyrazol-1-yl)benzo[d]oxazol-2(3H)-one] | 160
Cc1c([C@@H](O)CNCc2ccc(-c3ccc(=O)n(C)n3)nc2)ccc2c1COC2=O [Example 122, (R)-6-(5-(((2-hydroxy-2-(4-methyl-1-oxo-1,3-dihydroisobenzofuran-5-yl)ethyl)amino)methyl)pyridin-2-yl)-2-methylpyridazin-3(2H)-one] | 170
Cc1ncn(-c2ncc(CNC[C@H](O)c3ccc4c(c3C)COC4=O)cn2)n1 [Example 123, (R)-5-(1-hydroxy-2-(((2-(3-methyl-1H-1,2,4-ttiazol-1-yl)pyrimidin-5-yl)methyl)amino)ethyl)-4-methylisobenzofuran-1(3H)-one] | 210
Cc1c([C@@H](O)CNCc2ccc(-c3cnn(C)c3)nc2)ccc2c1COC2=O [Example 124, (R)-5-(1-hydroxy-2-(((6-(1-methyl-1H-pyrazol-4-yl)pyridin-3-y)methyl)amino)ethyl)-4-methylisobenzofuran-1(3H)-one] | 260
CCn1c(=O)oc2ccc(-n3cc(CNC[C@H](O)c4ccc5c(c4C)COC5=O)cn3)cc21 [Example 125, (R)-3-ethyl-5-(4-(((2-hydroxy-2-(4-methyl-1-oxo-1,3-dihydroisobenzofuran-5-yl)ethyl)amino)methyl)-1H-pyrazol-1-yl)benzo[d]oxazol-2(3H)-one] | 390
Cc1c([C@@H](O)CNCc2c[nH]c(-c3ccc4oc(=O)n(C)c4c3)n2)ccc2c1COC2=O [Example 126, (R)-5-(4-(((2-hydroxy-2-(4-methyl-1-oxo-1,3-dihydroisobenzofuran-5-yl)ethyl)amino)methyl)-1H-imidazol-2-yl)-3-methylbenzo[d]oxazol-2(3H)-one] | 580
Cc1nnn(-c2ccc(CNC[C@H](O)c3ccc4c(c3C)COC4=O)cn2)n1 [Example 127, (R)-5-(1-hydroxy-2-(((6-(5-methyl-2H-tetrazol-2-yl)pyridin-3-yl)methyl)amino)ethyl)-4-methylisobenzofuran-1(3H)-one] | 420
COc1cc(-c2ncc(CNC[C@H](O)c3ccc4c(c3C)COC4=O)s2)ncc1C#N [Example 129, (R)-6-(5-(((2-hydroxy-2-(4-methyl-1-oxo-1,3-dihydroisobenzofuran-5-yl)ethyl)amino)methyl)thiazol-2-yl)-4-methoxynicotinonitrile] | 8
Cc1cn(-c2cnc(CNC[C@H](O)c3ccc4c(c3C)COC4=O)cn2)cn1 [Example 141, (R)-5-(1-hydroxy-2-(((5-(4-methyl-1H-imidazol-1-yl)pyrazin-2-yl)methyl)amino)ethyl)-4-methylisobenzofuran-1(3H)-one] | 290
Cc1c([C@@H](O)CNCc2cnn(-c3cc(N4CCOC4=O)ccn3)c2)ccc2c1COC2=O [Example 143, (R)-3-(2-(4-(((2-hydroxy-2-(4-methyl-1-oxo-1,3-dihydroisobenzofuran-5-yl)ethyl)amino)methyl)-1H-pyrazol-1-yl)pyridin-4-yl)oxazolidin-2-one] | 1000
CNC(=O)O[C@@H](CNCc1cnn(-c2cc(C)c(C#N)cn2)c1)c1ccc2c(c1C)COC2=O [Example 144, (R)-2-(((1-(5-cyano-4-methylpyridin-2-yl)-1H-pyrazol-4-yl)methyl)amino)-1-(4-methyl-1-oxo-1,3-dihydroisobenzofuran-5-yl)ethyl methylcarbamate] | 140
Cc1c([C@@H](O)CNCc2cnn(-c3ccc4oc(=O)n(C)c4n3)c2)ccc2c1COC2=O [Example 145, (R)-5-(4-(((2-hydroxy-2-(4-methyl-1-oxo-1,3-dihydroisobenzofuran-5-yl)ethyl)amino)methyl)-1H-pyrazol-1-yl)-3-methyloxazolo[4,5-b]pyridin-2(3H)-one] | 130
Cc1cn(-c2ncc(CNC[C@H](O)c3ccc4c(c3C)COC4=O)cn2)c(C2CC2)n1 [Example 153, (R)-5-(2-(((2-(2-cyclopropyl-4-methyl-1H-imidazol-1-yl)pyrimidin-5-yl)methyl)amino)-1-hydroxyethyl)-4-methylisobenzofuran-1(3H)-one] | 520
Cc1c([C@@H](O)CNCc2ccc(-n3cc(C(N)=O)cn3)nc2)ccc2c1COC2=O [Example 154, (R)-1-(5-(((2-hydroxy-2-(4-methyl-1-oxo-1,3-dihydroisobenzofuran-5-yl)ethyl)amino)methyl)pyridin-2-yl)-1H-pyrazole-4-carboxamide] | 1000
Cc1c([C@@H](O)CNCc2cnn(-c3cc(OC(C)C)c(C#N)cn3)c2)ccc2c1COC2=O [Example 157, (R)-6-(4-(((2-hydroxy-2-(4-methyl-1-oxo-1,3-dihydroisobenzofuran-5-yl)ethyl)amino)methyl)-1H-pyrazol-1-yl)-4-isopropoxynicotinonitrile] | 31
Cc1c([C@@H](O)CNCc2cnn(-c3cccc(N4CCOC4=O)c3)c2)ccc2c1COC2=O [Example 158, (R)-3-(3-(4-(((2-hydroxy-2-(4-methyl-1-oxo-1,3-dihydroisobenzofuran-5-yl)ethyl)amino)methyl)-1H-pyrazol-1-yl)phenyl)oxazolidin-2-one] | 390
Cc1c([C@@H](O)CN(CCCC(F)(F)F)Cc2ccc(-c3ccc4oc(=O)n(C)c4c3)nc2)ccc2c1COC2=O [Example 163, (R)-5-(5-(((2-hydroxy-2-(4-methyl-1-oxo-1,3-dihydroisobenzofuran-5-yl)ethyl)(4,4,4-trifluorobutyl)amino)meth-yl)pyridin-2-yl)-3-methylbenzo[d]oxazol-2(3H)-one] | 260
Cc1cc(-n2cc(CNC[C@H](O)c3ccc4c(c3C)COC4=O)cn2)cc(C)n1 [Example 164, (R)-5-(2-(((1-(2,6-dimethylpyridin-4-yl)-1H-pyrazol-4-yl)methyl)amino)-1-hydroxyethyl)-4-methylisobenzofuran-1(3H)-one] | 280
Cc1c([C@@H](O)CNCc2cnn(-c3cnccn3)c2)ccc2c1COC2=O [Example 165, (R)-5-(1-hydroxy-2-(((1-(pyrazin-2-yl)-1H-pyrazol-4-yl)methyl)amino)ethyl)-4-methylisobenzofuran-1(3H)-one] | 470
Cc1c([C@@H](O)CNCc2cnn(-c3ccnc4c3ccn4C)c2)ccc2c1COC2=O [Example 166, (R)-5-(1-hydroxy-2-(((1-(1-methyl-1H-pyrrolo[2,3-b]pyridin-4-yl)-1H-pyrazol-4-yl)methyl)amino)ethyl)-4-methylisobenzofuran-1(3H)-one] | 1300
Cc1cc(-n2cc(CNC[C@H](O)c3ccc4c(c3C)COC4=O)c3ncccc32)ncc1C#N [Example 168, (R)-6-(3-(((2-hydroxy-2-(4-methyl-1-oxo-1,3-dihydroisobenzofuran-5-yl)ethyl)amino)methyl)-1H-pyrrolo[3,2-b]pyridin-1-yl)-4-methylnicotinonitrile] | 120
Cc1c([C@@H](O)CNCc2cnn(-c3ccc(-c4noc(=O)n4C)cn3)c2)ccc2c1COC2=O [Example 171, (R)-3-(6-(4-(((2-hydroxy-2-(4-methyl-1-oxo-1,3-dihydroisobenzofuran-5-yl)ethyl)amino)methyl)-1H-pyrazol-1-yl)pyridin-3-yl)-4-methyl-1,2,4-oxadiazol-5(4H)-one] | 1000
Cc1cc(-n2cc(CNC[C@@H](c3ccc4c(c3C)COC4=O)N(C)C)cn2)ncc1C#N [Example 174, (R)-6-(4-(((2-(dimethylamino)-2-(4-methyl-1-oxo-1,3-dihydroisobenzofuran-5-yl)ethyl)amino)methyl)-1H-pyrazol-1-yl)-4-methylnicotinonitrile] | 11600

Target: hERG channels (Homo sapiens (Human), UniProt Q12809)
Sequence (Q12809 whole entry): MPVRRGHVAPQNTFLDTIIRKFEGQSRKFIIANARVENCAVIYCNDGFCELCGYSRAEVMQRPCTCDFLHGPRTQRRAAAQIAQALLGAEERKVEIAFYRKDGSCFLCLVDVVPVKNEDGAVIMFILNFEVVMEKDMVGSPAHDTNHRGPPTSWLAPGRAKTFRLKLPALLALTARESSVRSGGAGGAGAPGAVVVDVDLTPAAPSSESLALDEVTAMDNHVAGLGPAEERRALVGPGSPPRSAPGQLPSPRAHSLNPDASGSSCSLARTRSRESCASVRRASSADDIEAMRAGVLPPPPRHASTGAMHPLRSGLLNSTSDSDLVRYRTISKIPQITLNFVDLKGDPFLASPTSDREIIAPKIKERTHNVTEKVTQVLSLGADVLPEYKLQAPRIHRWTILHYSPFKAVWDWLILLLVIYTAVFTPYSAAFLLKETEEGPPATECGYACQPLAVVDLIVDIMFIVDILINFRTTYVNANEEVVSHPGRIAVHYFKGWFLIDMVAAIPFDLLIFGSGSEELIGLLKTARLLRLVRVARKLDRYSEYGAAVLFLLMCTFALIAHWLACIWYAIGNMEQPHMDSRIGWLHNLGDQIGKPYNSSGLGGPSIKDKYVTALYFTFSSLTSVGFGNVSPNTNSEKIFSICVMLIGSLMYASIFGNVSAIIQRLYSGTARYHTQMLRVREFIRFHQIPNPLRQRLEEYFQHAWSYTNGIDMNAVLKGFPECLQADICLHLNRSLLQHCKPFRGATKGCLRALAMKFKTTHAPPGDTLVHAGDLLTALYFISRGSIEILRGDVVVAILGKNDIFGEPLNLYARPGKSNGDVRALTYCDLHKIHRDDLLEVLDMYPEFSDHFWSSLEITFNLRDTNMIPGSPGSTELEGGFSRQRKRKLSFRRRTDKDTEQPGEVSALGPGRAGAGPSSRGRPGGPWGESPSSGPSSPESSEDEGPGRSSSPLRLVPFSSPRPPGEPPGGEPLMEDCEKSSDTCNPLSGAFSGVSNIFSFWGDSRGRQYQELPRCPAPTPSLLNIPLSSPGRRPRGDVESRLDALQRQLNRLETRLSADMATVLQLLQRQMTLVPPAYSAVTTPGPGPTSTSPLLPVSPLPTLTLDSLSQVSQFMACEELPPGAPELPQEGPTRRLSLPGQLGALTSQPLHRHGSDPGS
Test: hERG Manual Patch Clamp Assay (HEK 293 cells stably expressing hERG channels)
Type: cell-based
Conditions: human, HEK 293 cells stably expressing hERG channels, pH 7.4

Structure (SMILES) | inhibition at 1 µM [%]
Cc1cc(-c2ccc(CNCC(O)c3ccc4c(c3C)COC4=O)cn2)ncc1C#N (single isomer, unassigned) [Example 4-I, 5′-(((2-hydroxy-2-(4-methyl-1-oxo-1,3-dihydroisobenzofuran-5-yl)ethyl)amino)methyl)-4-methyl-[2,2′-bipyridine]-5-carbonitrile] | 22
